Laboratory results from patent publication US20090270379A1, “QUINOLONE DERIVATIVES USEFUL AS ANTIBACTERIAL AGENTS” (priority 2008, published 2009).
Values after ≈ are worked out from the molar mass of the structure shown.

Key:
Assay type in all cases: cell-based
[1] = system: strain D, fluoroquinolone-resistant clinical isolate of Streptococcus pneumoniae; assay: In vitro antibacterial activity (MIC), microdilution broth method, strain D; settings: read-out: MIC (μg/mL) D
Experimental: (§1) Minimal inhibitory concentration (MIC) is an indicator of in vitro antibacterial activity. […] The in vitro antimicrobial activity of representative compounds of the present invention was determined by the microdilution broth method following the test method from the National Committee for Clinical Laboratory Standards (NCCLS). This method is described in the NCCLS Document M7-A4, Vol. 17, No. 2, “Methods for Dilution Antimicrobial Susceptibility Test for Bacteria that Grow Aerobically—Fourth Edition”, which is incorporated herein by reference.
(§2) In this method two-fold serial dilutions of drug in cation adjusted Mueller-Hinton broth were added to wells in microdilution trays. The test organisms were prepared by adjusting the turbidity of actively growing broth cultures so that the final concentration of test organism after it is added to the wells was approximately 5×10^4 CFU/well. Following inoculation of the microdilution trays, the trays were incubated at 35° C. for 16-20 hours and then read. The amount of growth in the wells containing the test compound was compared with the amount of growth in the growth-control wells (no test compound) used in each tray.
(§3) Representative compounds of the present invention were tested against a variety of pathogenic bacteria with results as listed in Table 3, below.

[2] = system: strain B, fluoroquinolone-resistant clinical isolate of Streptococcus pneumoniae; assay: In vitro antibacterial activity (MIC), microdilution broth method, strain B; settings: read-out: MIC (μg/mL) B
Experimental: as §1, §2, §3

[3] = system: Staphylococcus aureus OC4172; assay: In vitro antibacterial activity (MIC), microdilution broth method, strain A; settings: cation adjusted Mueller-Hinton broth, 35° C., 16-20 hours
Experimental: as §1, §2, §3

[4] = system: Streptococcus pneumoniae ATCC 49619; assay: In vitro antibacterial activity (MIC), microdilution broth method, strain E; settings: ATCC49619, 35° C., 16-20 hours
Experimental: as §1, §2, §3

[5] = system: strain C, fluoroquinolone-resistant clinical isolate of Streptococcus pneumoniae; assay: In vitro antibacterial activity (MIC), microdilution broth method, strain C; settings: read-out: MIC (μg/mL) C
Experimental: as §1, §2, §3

SMILES | MIC [1] | MIC [2] | MIC [3] | MIC [4] | MIC [5]
O=C(O)c1cn(C2CC2)c2c(OC(F)F)c(-c3cc4n(c3)CCNC4)ccc2c1=O [Compound 1, 1-Cyclopropyl-8-difluoromethoxy-4-oxo-7-(1,2,3,4-tetrahydro-pyrrolo[1,2-a]pyrazin-7-yl)-1,4-dihydro-quinoline-3-carboxylic acid] | 8 µg/mL (≈ 19.3 µM) | 1 µg/mL (≈ 2.41 µM) | 0.06 µg/mL (≈ 0.144 µM) | 0.5 µg/mL (≈ 1.2 µM) | 8 µg/mL (≈ 19.3 µM)
O=C(O)c1cn(C2CC2)c2c(OC(F)F)c(C3=C[C@H]4CN(Cc5ccccc5)CCN4C3)ccc2c1=O [Compound 2, 7-(2-Benzyl-1,2,3,4,6,8a-hexahydro-pyrrolo[1,2S-a]pyrazin-7-yl)-1-cyclopropyl-8-difluoromethoxy-4-oxo-1,4-dihydro-quinoline-3-carboxylic acid] | > 16 µg/mL | > 16 µg/mL | 0.5 µg/mL (≈ 0.985 µM) | 8 µg/mL (≈ 15.8 µM) | > 16 µg/mL
O=C(O)c1cn(C2CC2)c2c(OC(F)F)c(C3C[C@H]4CNCCN4C3)ccc2c1=O (stereo partly drawn) [Compound 3, 1-Cyclopropyl-8-difluoromethoxy-7-(octahydro-pyrrolo[1,2S-a]pyrazin-7-yl)-4-oxo-1,4-dihydro-quinoline-3-carboxylic acid] | > 16 µg/mL | > 16 µg/mL | 8 µg/mL (≈ 19.1 µM) | > 16 µg/mL | > 16 µg/mL
CN1CCn2cc(-c3ccc4c(=O)c(C(=O)O)cn(C5CC5)c4c3OC(F)F)cc2C1 [Compound 4, 1-Cyclopropyl-8-difluoromethoxy-7-(2-methyl-1,2,3,4-tetrahydro-pyrrolo[1,2-a]pyrazin-7-yl)-4-oxo-1,4-dihydro-quinoline-3-carboxylic acid] | > 16 µg/mL | 2 µg/mL (≈ 4.66 µM) | 0.25 µg/mL (≈ 0.582 µM) | 2 µg/mL (≈ 4.66 µM) | > 16 µg/mL
CN1CCN2CC(c3ccc4c(=O)c(C(=O)O)cn(C5CC5)c4c3OC(F)F)C[C@H]2C1 (stereo partly shown) [Compound 5, 1-Cyclopropyl-8-difluoromethoxy-7-(2-methyl-octahydro-pyrrolo[1,2s-a]pyrazin-7-yl)-4-oxo-1,4-dihydro-quinoline-3-carboxylic acid] | > 16 µg/mL | > 16 µg/mL | 8 µg/mL (≈ 18.5 µM) | > 16 µg/mL | > 16 µg/mL
C[C@H]1CN2CC(c3ccc4c(=O)c(C(=O)O)cn(C5CC5)c4c3OC(F)F)C[C@H]2CN1 (stereo partly drawn) [Compound 6, 1-Cyclopropyl-8-difluoromethoxy-7-(3S-methyl-octahydro-pyrrolo[1,2S-a]pyrazin-7-yl)-4-oxo-1,4-dihydro-quinoline-3-carboxylic acid] | > 16 µg/mL | > 16 µg/mL | 4 µg/mL (≈ 9.23 µM) | > 16 µg/mL | > 16 µg/mL
C[C@H]1Cn2cc(-c3ccc4c(=O)c(C(=O)O)cn(C5CC5)c4c3OC(F)F)cc2CN1 [Compound 7, 1-Cyclopropyl-8-difluoromethoxy-7-(3S-methyl-1,2,3,4-tetrahydro-pyrrolo[1,2-a]pyrazin-7-yl)-4-oxo-1,4-dihydro-quinoline-3-carboxylic acid] | 16 µg/mL (≈ 37.3 µM) | 1 µg/mL (≈ 2.33 µM) | 0.12 µg/mL (≈ 0.279 µM) | 1 µg/mL (≈ 2.33 µM) | 8 µg/mL (≈ 18.6 µM)
C[C@@H]1NCCn2cc(-c3ccc4c(=O)c(C(=O)O)cn(C5CC5)c4c3OC(F)F)cc21 [Compound 8, 1-Cyclopropyl-8-difluoromethoxy-7-(1S-methyl-1,2,3,4-tetrahydro-pyrrolo[1,2-a]pyrazin-7-yl)-4-oxo-1,4-dihydro-quinoline-3-carboxylic acid] | > 16 µg/mL | 4 µg/mL (≈ 9.31 µM) | 0.5 µg/mL (≈ 1.16 µM) | 1 µg/mL (≈ 2.33 µM) | 16 µg/mL (≈ 37.3 µM)
C[C@H]1NCCn2cc(-c3ccc4c(=O)c(C(=O)O)cn(C5CC5)c4c3OC(F)F)cc21 [Compound 9, 1-Cyclopropyl-8-difluoromethoxy-7-(1R-methyl-1,2,3,4-tetrahydro-pyrrolo[1,2-a]pyrazin-7-yl)-4-oxo-1,4-dihydro-quinoline-3-carboxylic acid] | > 16 µg/mL | 4 µg/mL (≈ 9.31 µM) | 0.5 µg/mL (≈ 1.16 µM) | 1 µg/mL (≈ 2.33 µM) | 16 µg/mL (≈ 37.3 µM)
CN[C@@H](C)C(=O)N1CCn2cc(-c3ccc4c(=O)c(C(=O)O)cn(C5CC5)c4c3OC(F)F)cc2C1 [Compound 10, 1-Cyclopropyl-8-difluoromethoxy-7-[2S-(2-methylamino-propionyl)-1,2,3,4-tetrahydro-pyrrolo[1,2-a]pyrazin-7-yl]-4-oxo-1,4-dihydro-quinoline-3-carboxylic acid] | > 16 µg/mL | 4 µg/mL (≈ 7.99 µM) | 0.25 µg/mL (≈ 0.499 µM) | 2 µg/mL (≈ 4 µM) | 16 µg/mL (≈ 32 µM)
COc1c(-c2cc3n(c2)C[C@H](C)NC3)c(F)cc2c(=O)c(C(=O)O)cn(C3CC3)c12 [Compound 11, 1-Cyclopropyl-6-fluoro-8-methoxy-7-(3S-methyl-1,2,3,4-tetrahydro-pyrrolo[1,2-a]pyrazin-7-yl)-4-oxo-1,4-dihydro-quinoline-3-carboxylic acid] | 4 µg/mL (≈ 9.72 µM) | 0.5 µg/mL (≈ 1.22 µM) | 0.03 µg/mL (≈ 0.0729 µM) | 0.12 µg/mL (≈ 0.292 µM) | 1 µg/mL (≈ 2.43 µM)
COc1c(-c2cc3n(c2)C[C@@H](C)NC3)c(F)cc2c(=O)c(C(=O)O)cn(C3CC3)c12 [Compound 12, 1-Cyclopropyl-6-fluoro-8-methoxy-7-(3R-methyl-1,2,3,4-tetrahydro-pyrrolo[1,2-a]pyrazin-7-yl)-4-oxo-1,4-dihydro-quinoline-3-carboxylic acid] | 8 µg/mL (≈ 19.4 µM) | 1 µg/mL (≈ 2.43 µM) | 0.03 µg/mL (≈ 0.0729 µM) | 0.25 µg/mL (≈ 0.608 µM) | 2 µg/mL (≈ 4.86 µM)
COc1c(-c2cc3n(c2)C[C@H](C)N(C)C3)c(F)cc2c(=O)c(C(=O)O)cn(C3CC3)c12 [Compound 13, 1-Cyclopropyl-7-(2,3S-dimethyl-1,2,3,4-tetrahydro-pyrrolo[1,2-a]pyrazin-7-yl)-6-fluoro-8-methoxy-4-oxo-1,4-dihydro-quinoline-3-carboxylic acid] | 8 µg/mL (≈ 18.8 µM) | 0.5 µg/mL (≈ 1.18 µM) | 0.12 µg/mL (≈ 0.282 µM) | 0.5 µg/mL (≈ 1.18 µM) | 4 µg/mL (≈ 9.4 µM)
COc1c(-c2cc3n(c2)C[C@@H](C)N(C)C3)c(F)cc2c(=O)c(C(=O)O)cn(C3CC3)c12 [Compound 14, 1-Cyclopropyl-7-(2,3R-dimethyl-1,2,3,4-tetrahydro-pyrrolo[1,2-a]pyrazin-7-yl)-6-fluoro-8-methoxy-4-oxo-1,4-dihydro-quinoline-3-carboxylic acid] | > 16 µg/mL | 2 µg/mL (≈ 4.7 µM) | 0.25 µg/mL (≈ 0.588 µM) | 1 µg/mL (≈ 2.35 µM) | 8 µg/mL (≈ 18.8 µM)
COc1c(-c2cc3n(c2)C[C@H](CO)N(C)C3)c(F)cc2c(=O)c(C(=O)O)cn(C3CC3)c12 [Compound 15, 1-Cyclopropyl-6-fluoro-7-(3R-hydroxymethyl-2-methyl-1,2,3,4-tetrahydro-pyrrolo[1,2-a]pyrazin-7-yl)-8-methoxy-4-oxo-1,4-dihydro-quinoline-3-carboxylic acid] | 16 µg/mL (≈ 36.2 µM) | 4 µg/mL (≈ 9.06 µM) | 0.12 µg/mL (≈ 0.272 µM) | 1 µg/mL (≈ 2.27 µM) | 8 µg/mL (≈ 18.1 µM)
COc1c(-c2cc3n(c2)CCN[C@H]3C)c(F)cc2c(=O)c(C(=O)O)cn(C3CC3)c12 [Compound 16, 1-Cyclopropyl-6-fluoro-8-methoxy-7-(1S-methyl-1,2,3,4-tetrahydro-pyrrolo[1,2-a]pyrazin-7-yl)-4-oxo-1,4-dihydro-quinoline-3-carboxylic acid] | 8 µg/mL (≈ 19.4 µM) | 2 µg/mL (≈ 4.86 µM) | 0.12 µg/mL (≈ 0.292 µM) | 0.5 µg/mL (≈ 1.22 µM) | 4 µg/mL (≈ 9.72 µM)
COc1c(-c2cc3n(c2)CCN[C@@H]3C)c(F)cc2c(=O)c(C(=O)O)cn(C3CC3)c12 [Compound 17, 1-Cyclopropyl-6-fluoro-8-methoxy-7-(1R-methyl-1,2,3,4-tetrahydro-pyrrolo[1,2-a]pyrazin-7-yl)-4-oxo-1,4-dihydro-quinoline-3-carboxylic acid] | > 16 µg/mL | 8 µg/mL (≈ 19.4 µM) | 0.25 µg/mL (≈ 0.608 µM) | 2 µg/mL (≈ 4.86 µM) | 16 µg/mL (≈ 38.9 µM)
COc1c(-c2cc3n(c2)C[C@H](C)N[C@@H]3C)c(F)cc2c(=O)c(C(=O)O)cn(C3CC3)c12 [Compound 18, 1-Cyclopropyl-7-(1R,3S-dimethyl-1,2,3,4-tetrahydro-pyrrolo[1,2-a]pyrazin-7-yl)-6-fluoro-8-methoxy-4-oxo-1,4-dihydro-quinoline-3-carboxylic acid] | 16 µg/mL (≈ 37.6 µM) | 2 µg/mL (≈ 4.7 µM) | 0.12 µg/mL (≈ 0.282 µM) | 1 µg/mL (≈ 2.35 µM) | 8 µg/mL (≈ 18.8 µM)
C[C@H]1Cn2cc(-c3cc4c(cc3F)c(=O)c(C(=O)O)cn4C3CC3)cc2CN1 [Compound 19, 1-Cyclopropyl-6-fluoro-7-(3S-methyl-1,2,3,4-tetrahydro-pyrrolo[1,2-a]pyrazin-7-yl)-4-oxo-1,4-dihydro-quinoline-3-carboxylic acid] | > 16 µg/mL | 2 µg/mL (≈ 5.24 µM) | 0.06 µg/mL (≈ 0.157 µM) | 0.5 µg/mL (≈ 1.31 µM) | 4 µg/mL (≈ 10.5 µM)
C[C@H]1Cn2cc(-c3cc4c(cc3F)c(=O)c(C(=O)O)cn4C3CC3)cc2CN1C [Compound 20, 1-Cyclopropyl-7-(2,3S-dimethyl-1,2,3,4-tetrahydro-pyrrolo[1,2-a]pyrazin-7-yl)-6-fluoro-4-oxo-1,4-dihydro-quinoline-3-carboxylic acid] | > 16 µg/mL | 4 µg/mL (≈ 10.1 µM) | 0.5 µg/mL (≈ 1.26 µM) | 1 µg/mL (≈ 2.53 µM) | 16 µg/mL (≈ 40.5 µM)
